Patent publication US11122801B2, “Inhibitors of enzymes that confer pesticide resistance” (APRESLABS LTD., priority 2015, dated 2021)

What was measured:
[1] = system: P450 activity derived from Meligethes aeneus; assay: P450 activity by deethylation of ethoxycoumarin (Example 7); format: biochemical; conditions: equal concentrations, 30 ug/incubation
Description: P450 activity was measured by the deethylation of ethoxycoumarin.
(30 ug/incubation) as used in Example 5.

[2] = target: T1, resistance-associated esterase, E4 (Myzus persicae, UniProt P35501); assay: Inhibition of purified resistance-associated esterase E4, para-nitrophenyl acetate substrate; format: biochemical, M. persicae; conditions: 3 μL 1% synergist, 10 minutes incubation, 1 mM para-nitrophenyl acetate, 405 nm
T1 sequence (P35501 24-552): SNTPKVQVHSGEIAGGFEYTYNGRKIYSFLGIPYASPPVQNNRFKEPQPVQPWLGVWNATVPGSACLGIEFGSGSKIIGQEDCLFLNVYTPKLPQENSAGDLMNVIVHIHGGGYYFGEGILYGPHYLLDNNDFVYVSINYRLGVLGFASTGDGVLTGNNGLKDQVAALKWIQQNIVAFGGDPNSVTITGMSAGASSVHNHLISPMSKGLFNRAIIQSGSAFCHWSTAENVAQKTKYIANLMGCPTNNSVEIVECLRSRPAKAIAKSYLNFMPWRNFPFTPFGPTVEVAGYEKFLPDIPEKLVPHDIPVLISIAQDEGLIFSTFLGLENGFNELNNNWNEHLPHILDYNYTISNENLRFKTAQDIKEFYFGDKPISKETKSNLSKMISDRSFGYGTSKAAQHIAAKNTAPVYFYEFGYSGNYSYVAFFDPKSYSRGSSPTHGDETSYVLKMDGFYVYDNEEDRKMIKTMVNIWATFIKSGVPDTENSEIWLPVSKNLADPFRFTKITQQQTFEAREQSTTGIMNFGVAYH
Description: The assay used 1 mM para-nitrophenyl acetate as a substrate. 10 μL dilute E4 in 40 μL phosphate buffer (pH 7.0) was incubated with 3 μL 1% synergist for 10 minutes. 200 μL of 1 mM para-nitrophenyl acetate was added and the remaining activity was measured at 405 nm in a microplate spectrophotometer (Molecular Devices). Inhibition by the same concentration of PBO is shown for comparison.

[3] = system: P450 activity derived from insecticide-resistant B-type B. tabaci; assay: P450 activity by deethylation of ethoxycoumarin (Example 5); conditions: 1% (30 ug/incubation), 10 minutes incubation, 7-ethoxycoumarin
Description: P450 activity was measured by the deethylation of ethoxycoumarin. 50 μL of the enzyme in the presence/absence of synergists was incubated for 10 minutes after which […] of 0.5 mm 7-ethyoxycoumarin in a phosphate buffer (pH 7.8) was added/incubated for a further 5 minutes at 30° C. after which 10 μL of 9.6 mm NaDPH was added. Fluorometric units (Fu) were measured with excitation wavelengths of 370 nm and 460 nm.

[4] = system: Houseflies (Musca domestica); assay: Housefly topical mortality with α-cypermethrin and Syn A (Example 1); format: in vivo; conditions: α-cypermethrin alone, 1 μL of 0.0025 g L^−1, after 24 hrs
Description: Houseflies (Musca domestica) were treated with 1 μL of a diagnostic concentration (0.0025 g L^−1) of α-cypermethrin, such that about 20% of the flies had died after 24 hrs.
With the addition of 1% ‘Syn A’, (i.e. 10 ug/fly) the potassium salts of fatty acids (C14-C18) obtained as a by-product of olive oil production, the mortality increased to about 70% after 24 hours. The potassium salt synergist was applied first, and the insecticide was applied within 1 hr of the application of the synergist.
The mortality rate when Syn A was used on its own was about 10%.

CCCCOCCOCCOCc1cc2c(cc1CCC)OCO2 [PBO, piperonyl butoxide]
inhibition of P450 activity [1]: inhibition

CCCCC/C=C\C/C=C\CCCCCCCC(=O)O [linoleic acid]
inhibition of esterase E4 [2]: inhibition

CCCCCCCC/C=C\CCCCCCCC(=O)O [oleic acid]
inhibition of P450 activity [3]: inhibition | inhibition of esterase E4 [2]: inhibition

CC1(C)C(C=C(Cl)Cl)C1C(=O)OC(C#N)c1cccc(Oc2ccccc2)c1 (stereo not drawn) [α-cypermethrin]
flies died (mortality) [4]: about 20%
